In patent US9226916B2, “Pyrrolidine derivatives” (HOFFMANN-LA ROCHE INC., priority 2009, dated 2016):

molecular target: T1, recombinant human NK3 receptor (Homo sapiens, UniProt P29371); experiment: [3H]SR142801 competition binding assay; settings: not given
T1 construct: expressed in transfected cells; host or cells: HEK293 cells, transient expression; membranes
T1 sequence (P29371 1-465): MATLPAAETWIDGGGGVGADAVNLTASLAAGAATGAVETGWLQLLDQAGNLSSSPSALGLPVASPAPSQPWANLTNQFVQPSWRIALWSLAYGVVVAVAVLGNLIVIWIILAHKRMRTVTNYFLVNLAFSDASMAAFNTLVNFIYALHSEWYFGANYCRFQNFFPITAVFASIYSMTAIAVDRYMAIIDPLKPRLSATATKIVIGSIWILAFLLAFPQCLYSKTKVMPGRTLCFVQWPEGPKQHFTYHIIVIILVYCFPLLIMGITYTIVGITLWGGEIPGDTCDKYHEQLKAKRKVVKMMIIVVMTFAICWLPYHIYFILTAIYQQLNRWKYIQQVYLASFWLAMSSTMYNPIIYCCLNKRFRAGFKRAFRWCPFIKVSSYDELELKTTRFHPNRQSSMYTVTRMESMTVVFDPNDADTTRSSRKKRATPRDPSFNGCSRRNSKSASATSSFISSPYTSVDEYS

Compound | Ki
Cc1ccnc(N2CCC(C(=O)N3C[C@@H](N(C)C(=O)Oc4ccc(F)cc4)[C@H](c4ccc(Cl)cc4)C3)CC2)n1 [Example 167, {(3S,4R)-4-(4-Chloro-phenyl)-1-[1-(4-methyl-pyrimidin-2-yl)-piperidine-4-carbonyl]-pyrrolidin-3-yl}-methyl-carbamic acid 4-fluoro-phenyl ester] | 4.9 nM
CN(C(=O)Oc1ccc(F)cc1)[C@@H]1CN(C(=O)C2CCNC2)C[C@H]1c1ccc(Cl)cc1 (stereo partly drawn) [Example 168, [(3S,4R)-4-(4-Chloro-phenyl)-1-(pyrrolidine-3-carbonyl)-pyrrolidin-3-yl]-methyl-carbamic acid 4-fluoro-phenyl ester] | 98.4 nM
CN(C(=O)Oc1ccc(F)cc1)[C@@H]1CN(C(=O)C2CCN(c3ncc(F)cn3)CC2)C[C@H]1c1ccc(Cl)cc1 [Example 169, {(3S,4R)-4-(4-Chloro-phenyl)-1-[1-(5-fluoro-pyrimidin-2-yl)-piperidine-4-carbonyl]-pyrrolidin-3-yl}-methyl-carbamic acid 4-fluoro-phenyl ester] | 4.1 nM
CCC(=O)N1CCC(C(=O)N2C[C@@H](N(C)C(=O)Oc3ccc(F)cc3)[C@H](c3ccc(Cl)cc3)C2)C1 (stereo partly drawn) [Example 170, [(3S,4R)-4-(4-Chloro-phenyl)-1-(1-propionyl-pyrrolidine-3-carbonyl)-pyrrolidin-3-yl]-methyl-carbamic acid 4-fluoro-phenyl ester] | 8.3 nM
CN(C(=O)Oc1ccc(F)cc1)[C@@H]1CN(C(=O)C2CCN(C(=O)C3CC3)C2)C[C@H]1c1ccc(Cl)cc1 (stereo partly drawn) [Example 171, [(3S,4R)-4-(4-Chloro-phenyl)-1-(1-cyclopropanecarbonyl-pyrrolidine-3-carbonyl)-pyrrolidin-3-yl]-methyl-carbamic acid 4-fluoro-phenyl ester] | 9.5 nM
COCC(=O)N1CCC(C(=O)N2C[C@@H](N(C)C(=O)Oc3ccc(F)cc3)[C@H](c3ccc(Cl)cc3)C2)C1 (stereo partly drawn) [Example 172, {(3S,4R)-4-(4-Chloro-phenyl)-1-[1-(2-methoxy-acetyl)-pyrrolidine-3-carbonyl]-pyrrolidin-3-yl}-methyl-carbamic acid 4-fluoro-phenyl ester] | 4.1 nM
CN(C(=O)OC1CC(F)(F)C1(F)F)[C@@H]1CN(C(=O)C2CCN(C(=O)C3(C)CC3)CC2)C[C@H]1c1ccc(Cl)cc1 (stereo partly drawn) [Example 175, {(3S,4R)-4-(4-Chloro-phenyl)-1-[1-(1-methyl-cyclopropanecarbonyl)-piperidine-4-carbonyl]-pyrrolidin-3-yl}-methyl-carbamic acid 2,2,3,3-tetrafluorocyclobutyl ester] | 36 nM
CN(C(=O)OC1CC(F)(F)C1(F)F)[C@@H]1CN(C(=O)C2CCN(c3ccc(C#N)cn3)CC2)C[C@H]1c1ccc(Cl)cc1 (stereo partly drawn) [Example 176, [(3S,4R)-4-(4-Chloro-phenyl)-1-(5′-cyano-3,4,5,6-tetrahydro-2H-[1,2′]bipyridinyl-4-carbonyl)-pyrrolidin-3-yl]-methyl-carbamic acid 2,2,3,3-tetrafluorocyclobutyl ester] | 4.6 nM
CC(CC(F)(F)F)OC(=O)N(C)[C@@H]1CN(C(=O)C2CCN(c3ccc(C#N)cn3)CC2)C[C@H]1c1ccc(Cl)cc1 (stereo partly drawn) [Example 177, [(3S,4R)-4-(4-Chloro-phenyl)-1-(5′-cyano-3,4,5,6-tetrahydro-2H-[1,2′]bipyridinyl-4-carbonyl)-pyrrolidin-3-yl]-methyl-carbamic acid 3,3,3-trifluoro-1-methyl-propyl ester] | 18.9 nM
CN(C(=O)Oc1ccc(F)cc1)[C@@H]1CN(C(=O)C2CCN(C3CCOCC3)C2)C[C@H]1c1ccc(Cl)cc1 (stereo partly drawn) [Example 179, {(3S,4R)-4-(4-Chloro-phenyl)-1-[1-(tetrahydro-pyran-4-yl)-pyrrolidine-3-carbonyl]-pyrrolidin-3-yl}-methyl-carbamic acid 4-fluoro-phenyl ester] | 56.6 nM
CN(C(=O)Oc1ccc(F)cc1)[C@@H]1CN(C(=O)C2CCN(c3ccc(S(C)(=O)=O)cn3)CC2)C[C@H]1c1ccc(Cl)cc1 [Example 180, [(3S,4R)-4-(4-Chloro-phenyl)-1-(5′-methanesulfonyl-3,4,5,6-tetrahydro-2H-[1,2′]bipyridinyl-4-carbonyl)-pyrrolidin-3-yl]-methyl-carbamic acid 4-fluoro-phenyl ester] | 0.7 nM
CN(C(=O)Oc1ccc(F)cc1)[C@@H]1CN(C(=O)C2CCN(c3ccc(C(F)(F)F)cn3)CC2)C[C@H]1c1ccc(Cl)cc1 [Example 181, [(3S,4R)-4-(4-Chloro-phenyl)-1-(5′-trifluoromethyl-3,4,5,6-tetrahydro-2H-[1,2′]bipyridinyl-4-carbonyl)-pyrrolidin-3-yl]-methyl-carbamic acid 4-fluoro-phenyl ester] | 2.8 nM
CC(=O)c1ccc(N2CCC(C(=O)N3C[C@@H](N(C)C(=O)Oc4ccc(F)cc4)[C@H](c4ccc(Cl)cc4)C3)CC2)nc1 [Example 182, [(3S,4R)-1-(5′-Acetyl-3,4,5,6-tetrahydro-2H-[1,2′]bipyridinyl-4-carbonyl)-4-(4-chloro-phenyl)-pyrrolidin-3-yl]-methyl-carbamic acid 4-fluoro-phenyl ester] | 2 nM
CN(C(=O)Oc1ccc(F)cc1)[C@@H]1CN(C(=O)C2CCN(c3ncccn3)CC2)C[C@H]1c1ccc(Cl)cc1 [Example 183, [(3S,4R)-4-(4-Chloro-phenyl)-1-(1-pyrimidin-2-yl-piperidine-4-carbonyl)-pyrrolidin-3-yl]-methyl-carbamic acid 4-fluoro-phenyl ester] | 16 nM
CN(C(=O)Oc1ccc(F)cc1)[C@@H]1CN(C(=O)C2CCN(c3ncc(Cl)cn3)CC2)C[C@H]1c1ccc(Cl)cc1 [Example 184, {(3S,4R)-4-(4-Chloro-phenyl)-1-[1-(5-chloro-pyrimidin-2-yl)-piperidine-4-carbonyl]-pyrrolidin-3-yl}-methyl-carbamic acid 4-fluoro-phenyl ester] | 6.7 nM
CN(C(=O)Oc1ccc(F)cc1)[C@@H]1CN(C(=O)C2CCN(c3cc(C#N)ccn3)CC2)C[C@H]1c1ccc(Cl)cc1 [Example 185, [(3S,4R)-4-(4-Chloro-phenyl)-1-(4′-cyano-3,4,5,6-tetrahydro-2H-[1,2′]bipyridinyl-4-carbonyl)-pyrrolidin-3-yl]-methyl-carbamic acid 4-fluoro-phenyl ester] | 3 nM
CN(C(=O)Oc1ccc(F)cc1)[C@@H]1CN(C(=O)C2CCN(c3ncccc3C#N)CC2)C[C@H]1c1ccc(Cl)cc1 [Example 186, [(3S,4R)-4-(4-Chloro-phenyl)-1-(3′-cyano-3,4,5,6-tetrahydro-2H-[1,2′]bipyridinyl-4-carbonyl)-pyrrolidin-3-yl]-methyl-carbamic acid 4-fluoro-phenyl ester] | 6 nM
CN(C(=O)Oc1ccc(F)cc1)[C@@H]1CN(C(=O)C2CCN(c3cncc(C#N)n3)CC2)C[C@H]1c1ccc(Cl)cc1 [Example 187, {(3S,4R)-4-(4-Chloro-phenyl)-1-[1-(6-cyano-pyrazin-2-yl)-piperidine-4-carbonyl]-pyrrolidin-3-yl}-methyl-carbamic acid 4-fluoro-phenyl ester] | 2.6 nM
CN(C(=O)Oc1ccc(F)cc1)[C@@H]1CN(C(=O)C2CCN(c3ncc(C(F)(F)F)cc3Cl)CC2)C[C@H]1c1ccc(Cl)cc1 [Example 188, [(3S,4R)-4-(4-Chloro-phenyl)-1-(3′-chloro-5′-trifluoromethyl-3,4,5,6-tetrahydro-2H-[1,2]bipyridinyl-4-carbonyl)-pyrrolidin-3-yl]-methyl-carbamic acid 4-fluoro-phenyl ester] | 14.6 nM
CN(C(=O)Oc1ccc(F)cc1)[C@@H]1CN(C(=O)C2CCN(c3cccc(C#N)n3)CC2)C[C@H]1c1ccc(Cl)cc1 [Example 189, [(3S,4R)-4-(4-Chloro-phenyl)-1-(6′-cyano-3,4,5,6-tetrahydro-2H-[1,2′]bipyridinyl-4-carbonyl)-pyrrolidin-3-yl]-methyl-carbamic acid 4-fluoro-phenyl ester] | 3.5 nM
COc1cnc(N2CCC(C(=O)N3C[C@@H](N(C)C(=O)Oc4ccc(F)cc4)[C@H](c4ccc(Cl)cc4)C3)CC2)nc1 [Example 190, {(3S,4R)-4-(4-Chloro-phenyl)-1-[1-(5-methoxy-pyrimidin-2-yl)-piperidine-4-carbonyl]-pyrrolidin-3-yl}-methyl-carbamic acid 4-fluoro-phenyl ester] | 17.2 nM

same assay, conditions: hNK-3 receptor affinity; membranes from HEK293 cells transiently expressing recombinant human NK3 receptor; [3H]SR142801; Cheng-Prussoff; read-out: Data Ki

Compound | Ki
CN(C(=O)OCC(F)(F)F)[C@@H]1CN(C(=O)C2CCN(C(=O)C3(C)CC3)CC2)C[C@H]1c1ccc(Cl)cc1 [Example 164, {(3S,4R)-4-(4-Chloro-phenyl)-1-[1-(1-methyl-cyclopropanecarbonyl)-piperidine-4-carbonyl]-pyrrolidin-3-yl}-methyl-carbamic acid 2,2,2-trifluoro ethyl ester] | 81.4 nM
CC(OC(=O)N(C)[C@@H]1CN(C(=O)C2CCN(c3ccc(C#N)cn3)CC2)C[C@H]1c1ccc(Cl)cc1)C(F)(F)F (stereo partly drawn) [Example 166, [(3S,4R)-4-(4-Chloro-phenyl)-1-(5′-cyano-3,4,5,6-tetrahydro-2H-[1,2′]bipyridinyl-4-carbonyl)-pyrrolidin-3-yl]-methyl-carbamic acid 2,2,2-trifluoro-1-methyl-ethyl ester] | 36.4 nM
CN(C(=O)OC1CCC1)[C@@H]1CN(C(=O)C2CCN(c3ccc(C#N)cn3)CC2)C[C@H]1c1ccc(Cl)cc1 [Example 173, [(3S,4R)-4-(4-Chloro-phenyl)-1-(5′-cyano-3,4,5,6-tetrahydro-2H-[1,2′]bipyridinyl-4-carbonyl)-pyrrolidin-3-yl]-methyl-carbamic acid cyclobutyl ester] | 47 nM
